Source: paper PMC12040169 (PLOS Biology, 2025)

Assay: in vitro
Conditions: human, hela cells, % viability

Structure (SMILES) | viability at 28.5 h, 10 µM [%]
O=C(CNC(=O)c1ccccc1Cl)Nc1ccc(Br)cc1C(=O)c1ccccc1 [CBK087691] | 101
CCc1onc(-c2ccccc2)c1C(=O)NCCO [CBK160434] | 89.8
O=C(CCc1nc(-c2ccccc2F)no1)Nc1ccccc1[N+](=O)[O-] [CBK268341] | 86.9
CC(C)CNC(=O)N1CCNC(=O)C1 [CBK155864] | 86.4
Cn1c(Cc2csc(NC(=O)c3ccc(Cl)cc3F)n2)n[nH]c1=S [CBK296635] | 94.7
FC(F)(F)c1cccc(Sc2cccc3ccccc23)n1 [CBK091449] | 94.8
Cc1ccccc1-n1c(SC(C)C)nc2sc3c(c2c1=O)CC(C)(C)OC3 [CBK091874] | 91.2
OCC1CCCN1c1cncc(-c2cccc3ccccc23)n1 (centres unmarked) [CBK065509] | 91.1
O=C(Oc1ccc(/C=N/c2ccc(-c3nc4ccccc4s3)c(O)c2)cc1)c1ccc(Cl)cc1 [CBK261234] | 100
Cc1ccc(S(=O)(=O)N(CC(=O)O)c2ccc(Br)cc2)cc1 [CBK287125] | 95.3
COc1ccccc1CNC(=O)c1ccc(=O)[nH]c1 [CBK288133] | 106
CCOC(=O)CC(=O)CSc1nc(C)cc(-c2cccs2)c1C#N [CBK267446] | 86.6
NCC1CCN(c2nc(-c3cc(C(F)(F)F)cc(C(F)(F)F)c3)cnc2N)CC1 [CBK063960] | 87.3
COc1ccc([C@@]23CC[C@@H](NC(=O)N(C)c4ccc(C)cc4)C[C@@H]2N(C)CC3)cc1OC [CBK045681T] | 89.2
Cc1cc(COc2nccnc2OC2CCN(Cc3ccc(Cl)cc3)CC2)no1 [CBK082949T] | 85.7
O=C(O)CCc1nn2c3ccccc3n(CC(=O)c3cccs3)c2nc1=O [CBK267518] | 99.8
CN(C)CCN1CCN(c2nc(-c3occc3C=O)cnc2N)CC1 [CBK063917] | 96.3
NC(=O)CCN1CCC(Cc2ccccc2)CC1 [CBK138317] | 117
CSc1nnc(CC2CCN(C(=O)c3ccccc3C(C)=O)CC2)n1C [CBK306720] | 111
c1ccc2sc(-c3cc(N4CCN(CCN5CCCC5)CC4)ncn3)cc2c1 [CBK091172] | 89.3
Cc1ccccc1CN1CCC(O)(c2cccnc2F)CC1 [CBK284376] | 96
CCN1CCN(Cc2c[nH]c3ccccc23)CC1 [CBK261540] | 99.4

Structure (SMILES) | viability at 28.5 h, 10 µM [%]
CC(C)c1noc([C@@H]2C[C@H](NS(=O)(=O)c3ccc(F)cc3)CN2C)n1 [CBK288864] | 114
COc1ccccc1NC(=O)N1C[C@@H]2C[C@H](C1)c1c(-c3cccs3)ccc(=O)n1C2 [CBK289191] | 107
CC1CN(S(=O)(=O)C(C)C)CCC1NCc1ccncc1 (centres unmarked) [CBK304870] | 89.6
CN(C)S(=O)(=O)NNC(=O)c1c[nH]c2ccccc12 [CBK267698] | 102
CC(=O)Nc1cccc(-n2nnnc2SCC2CCCCO2)c1 (centres unmarked) [CBK305746] | 91.5
O=C(O)CNC(=O)/C(=C\c1ccco1)NC(=O)c1ccccc1Cl [CBK263967] | 84.8
O=C(Cc1ccccc1F)N1CCC(n2cnc3cccnc32)CC1 [CBK283635] | 87.7
COc1cc(Cl)c(C)cc1NC(=O)c1ncn(-c2ccccc2)n1 [CBK269456] | 101
Cc1csc2c(C3CCCN(C(=O)c4cnn(C)c4)C3)nc(C)n12 (centres unmarked) [CBK284595] | 98.5
Cn1c2c(c(=O)n(C)c1=O)[C@H]1[C@H](O)[C@H](O)C[C@H]1C1(CCC1)N2 [CBK303250] | 93.6
Cc1sc2ccc(-c3ccccc3)cc2[n+]1CCCS(=O)(=O)[O-] [CBK260947] | 90.7
Cc1ccc(N(Cc2cc3ccccc3nc2O)C(=O)c2cccnc2)cc1 [CBK265442] | 85.5
Cn1nc(C2CCN(C(=O)c3ccccc3F)CC2)c2cccnc21 [CBK285019] | 106
CCOc1c(CNCc2ccccn2)cccc1OC [CBK268104C] | 96.9
CC(C)Cn1cncc1CNC(=O)Nc1ccc2c(cnn2C)c1 [CBK307405] | 93.8
Nc1ccn([C@@H]2O[C@H](CO)[C@H](O)C2O)c(=S)n1 (some centres unmarked) [CBK201293] | 90.9
CC(=O)NC1(c2ccccc2F)CCN(CC(=O)N(C)C)CC1 [CBK283618] | 103
NS(=O)(=O)c1cnccc1NCCc1ccccc1 [CBK058003] | 103
CCOC(=O)c1ccccc1NC(=O)CCC(=O)O [CBK261631] | 93.5
Cc1ccc(OCC(=O)NC(C)c2ccc(F)cc2F)c([N+](=O)[O-])n1 (centres unmarked) [CBK295662] | 92.7
CC(=O)NCc1cccc(-c2cc(C(=O)Nc3ccc4c(c3)OCCO4)cnc2-c2cccnc2)c1 [CBK160658] | 88.6
COc1cc(C2C3=C(CC(C)(C)CC3=O)Nc3ncnn32)cc(OC)c1OC (centres unmarked) [CBK265646] | 86.2

Structure (SMILES) | viability at 28.5 h, 10 µM [%]
CNCC1CCCN(Cc2cn(-c3ccc(Br)cc3)nc2C)C1 (centres unmarked) [CBK304301C] | 99.7
COc1ccc(CN(C)CCN(C)C)c(O)c1 [CBK261915] | 114
O=C1C2CCCCC2C(=O)N1c1ccc(Oc2ccc(Br)cc2)cc1 (centres unmarked) [CBK263531] | 116
Cc1ccc2oc(C(=O)N(CCO)CCc3ccncc3)c(C)c2c1 [CBK281642] | 106
c1coc(-c2ccc(Nc3ccc4c(c3)OCCO4)nc2)c1 [CBK037765] | 96.9
CC(NS(=O)(=O)c1ccccc1Cl)C(=O)N1CCCC1 (centres unmarked) [CBK305994] | 93.2
CCN(CC)c1nc2n(c(=O)n1)CCN2CC [CBK027342] | 94.9
CC(C)c1cc(C(=O)NCC2CCCN(C(C)C)C2)n(C)n1 (centres unmarked) [CBK282566] | 95.8
CCN1CCN(CC(=O)C(C#N)c2ccccc2)CC1 (centres unmarked) [CBK269423] | 92.8
CC(CC(=O)O)n1nnc2ccccc21 (centres unmarked) [CBK264139] | 113
COc1ccc(C(=O)O)cc1CN1CCOCC1 [CBK287029] | 102
CS(=O)(=O)N1CC2(CCN(Cc3cccnc3)CC2)c2ccccc21 [CBK084006] | 98.1
O=C(Nc1ccc(O)c(C(=O)O)c1)c1ccc2c(c1)C(=O)N(CC1CCCO1)C2=O (centres unmarked) [CBK268280] | 101
CSc1ccc(CNC(=O)c2sc3nc(C)nc(N4CCCC4)c3c2C)cc1 [CBK294432] | 96.8
Cc1nc(C)n(C(C)CNC(=O)Cc2coc3cc(C)c(C)cc23)n1 (centres unmarked) [CBK282577] | 106
Cn1c(SCc2ccc([N+](=O)[O-])cc2)nnc1C(O)c1ccccc1 (centres unmarked) [CBK269735] | 88.6
Cc1cccn2c(=O)cc(CN3CCC(c4cnn(C)c4)CC3)nc12 [CBK305806] | 101
N#Cc1c(NC(=O)CSc2nc3ccccc3s2)oc(-c2ccccc2)c1-c1ccccc1 [CBK269019] | 97
COc1ccc(-c2cnc3[nH]c(=O)n(CCCN4CCOCC4)c3n2)c(OC)c1OC [CBK064249] | 109
COc1ccccc1C(=O)Nc1ccc2nc(SCC(=O)NC3CC3)sc2c1 [CBK070791] | 92.7
c1ccc2nc(N3CCCC3)c(Sc3nccs3)nc2c1 [CBK093794] | 110
